We go through one compound from patent US12539298B2, “Lobinaline N-oxides as positive allosteric modulators of the dopamine transporter with potential value in the treatment of substance abuse disorders” (University of Kentucky Research Foundation, priority 2019, dated 2026).

SMILES strings stand for the structures. pIC50, pKi: −log10 of the molar value.

Broadly, the pKi is the negative decadic logarithm of the Ki, by convention in mol/L. Higher therefore signals a low Ki. For orientation: pIC50 means −log10 of the IC50, conventionally taken in molar units.

A short description of data set [1]: Drinking in the dark model of binge drinking. The conditions noted are these: 25 mg/Kg SC. The data set is classed as in vivo, C57Bl/6J mice. The procedure: “Drinking in the dark” is a model for binge drinking in which C57Bl/6J mice are given limited access to alcohol during their dark cycle. With repeated daily access, mice will voluntarily drink to blood alcohol levels above 150 mg/dl. Lobeline reduces alcohol consumption in this model and it has predictive validity in that both naltrexone and acamprosate are active.
Methods: 8 male and 8 female mice were used for each of these studies and scoring was by an observer blind to treatment. Statistical analysis was by ANOVA followed by Bonnferoni posthoc with significance at p<0.05.

The next data set addresses T1, alpha4/beta2 nicAChR (Rattus norvegicus, UniProt P09483+P12390).
T1 construct: from tissue
The experiment in a line: displacement of beta2-selective radioligand [3H]cytisine. The data set is classed as binding.

Data set [2] has as its target nicAChRs. The data set can be described thus: displacement of [3H]epibatidine from rat brain homogenates. The data set is classed as binding. For orientation: Displacement assays read how much labelled ligand stays bound in the presence of the test substance.
The target in data set [3] is T2, DAT (Rattus norvegicus, UniProt P23977). The data set can be described thus: dopamine uptake in striatum of isoflurane-anesthetized rats by in vivo electrochemistry, Examples 19-20. Details: DA clearance in striatum and nucleus accumbens of urethane-anesthetized SD rats; from tissue; host or cells: striatum / nucleus accumbens of living anesthetized SD rats; species or system SD rats. How it is done:
After obtaining reproducible signals for locally applied DA (50-75 nl, 200 μM) to produce a control DA peak height below 1 uM, vehicle or drug was locally applied slowly over 10-30 sec (˜500 nl 250 μM), then 60 sec later the next application of DA was performed, with subsequent DA applications at 5-min intervals for 25 min. […] The DA kinetic data from each animal were analyzed using FAST software (Quanteon, LLC, Nicholasville KY USA). […] These parameters were compared between pre- and post-drug application by one-way ANOVA with Tukey's post hoc analysis, with significance assigned at p<0.05.

The nature of data set [4]: octanol/water partition (K octanol/water). The data set is classed as physicochemical. The text has this: (§1) Lobinaline and the “mono”-N-oxide were separated from plant and culture material by acid/base extraction, but the bi-N-oxide was derived from lobinaline using 3-chloroperbenzoic acid. All these compounds were separated by column chromatography with identity and purity confirmed by LC/MS.

The next data set addresses T3, alpha7-nicAChR (Rattus norvegicus, UniProt Q05941).
T3 construct: from tissue
The data set can be described thus: displacement of [3H]-methyllycaconitine. It is filed as binding. The conditions noted are these: alpha7-nicAChR selective radioligand.

Data set [5] relates to nicAChRs. The experiment in a line: [3H]DA release from superfused rat striatal slices. The data set is classed as cell-based. The conditions noted are these: 100 uM superfused before nicotine. The procedure: Effects of lobinaline and nicotine on [3H]DA release from superfused rat striatal slices (ref 5): rat brain striatal slices were incubated with [3H]DA for 30 min at […] before transfer to superfusion chambers. […] To evaluate the role of nicAChRs, striatal slices preloaded with [3H]-DA were pretreated with the nicAChR antagonist mecamylamine (10 μM) prior to superfusion of lobinaline (100 μM). […] With the data above from SHSY5Y cells, this supports a partial agonist action of lobinaline at nicAChRs. The N-oxides have not yet been tested in this system. Lobinaline has weak agonist effects on nicAChRs, but also has as yet unquantified antagonist effects (i.e. it acts as a partial agonist at nicAChRs).

Data set [6] relates to rat striatal synaptosomes. The data set can be described thus: [3H]DA release from rat striatal synaptosomes. Conditions: preloaded synaptosomes; 10-500 uM tested; 30 min at 37° C. It is filed as biochemical.
Experimental: [3H]DA release from rat striatal synaptosomes: Synaptosomes preloaded with [3H]DA were exposed to lobinaline (10-500 uM), 30 min @ 37° C.). [3H]DA release was calculated by subtraction of activity following drug treatment from activity in the absence of drug.
Data set [7] deals with T2, DAT. The data set can be described thus: DA clearance in striatum of anesthetized rats by in vivo electrochemistry (high-speed chronoamperometry), Example 8. Set-up: DA clearance in striatum and nucleus accumbens of urethane-anesthetized SD rats; from tissue; host or cells: striatum / nucleus accumbens of living anesthetized SD rats; species or system SD rats. The procedure: DA clearance in striatum and nucleus accumbens of urethane-anesthetized SD rats was monitored by in vivo electrochemistry using high-speed chrono-amperometry [see 36]. After obtaining reproducible signals for locally applied DA, vehicle or drug was applied slowly over 10-30 sec, then 30-60 sec later the next application of DA was made, with subsequent DA applications at 5-minute intervals for 25-30 min. The DA kinetic data from each animal was analyzed using FAST software (Quanteon). […] These effects were no longer seen 3-5 minutes after lobinaline ejection. They are consistent with simple competitive inhibition of the DAT by lobinaline. […] However, the lobinaline N-oxides produce different effects. Representative data from lobinaline N-oxide, at the same concentration used for lobinaline (1 mM in 250 nl medium) are shown in FIG. 6. […] This is entirely consistent with effects on synaptosomal [3H]DA uptake in vitro above, and probably represents competitive inhibition. However, after exposure to the N-oxide there is a significant and prolonged (c20 min) increase in the first order rate of decay of the DA peak. […] This increase in rate constant induced by the N-oxide varied from 20× to 2× at increasing depths in the DV gradient.
The uptake rate of locally applied DA (˜100 nl; 200 μM) was measured before and 1 minute after local application of lobinaline (˜250 nl; 1 mM), 403 (˜300 nl; 250 μM) or 419 (˜300 nl; 250 μM) (FIGS. 7, 8, and 9).

Another data set concerns nicAChR. The data set can be described thus: 45Ca2+ entry into SHSY5Y cells. The conditions noted are these: conclusion from 45Ca2+ entry. The data set is classed as cell-based. The source says:
Effects of lobinaline and nicotine on ^45Ca^2+ entry into SHSY5Y cells: nicAChR function can be evaluated semi-quantitatively in this cell line by measuring ^45Ca^2+ entry in response to nicotine. […] The lobinaline N-oxides have not yet been tested in this system.

Another data set is described as follows: aqueous solubility. The data set is classed as physicochemical.
Excerpt: Lobinaline (FIG. 1), was isolated from plant material and identified as the first-known binitrogenous plant alkaloid more than 80 years ago [27]. The applicants began to test its pharmacological activity after identifying Lobelia cardinalis as a novel source of nicAChR activity by high throughput screening in 2005 [26]. This plant species has no history of abuse, or traditional medicinal use of relevance to SUDs. […] These actions support lobinaline as a lead compound for the treatment of SUDs, particularly alcohol and nicotine use disorders. […] Lobinaline also appears to have appropriate pharmacokinetics and low toxicity. […] Conversely, this makes it a good test of the ability of target-directed evolution to generate novel inhibitors of the DAT in mutant plant cells.
as §1

In data set [8] the target is T2, DAT. The experiment in a line: [3H]DA uptake into rat striatal synaptosomes. It is filed as biochemical. Set-up: from tissue; host or cells: rat striatum (synaptosomes; homogenate). Conditions: compound added 15 min before [3H]DA, 30 min at 37° C, read-out: IC50, inhibition of [3H]-DA uptake.
Experimental: Lobinaline or the N-oxides were added 15 min before addition of [3H]DA. Synaptosomal uptake of [3H]DA was measured after 30 min incubation at 37° C.

T2 sequence (P23977 whole entry): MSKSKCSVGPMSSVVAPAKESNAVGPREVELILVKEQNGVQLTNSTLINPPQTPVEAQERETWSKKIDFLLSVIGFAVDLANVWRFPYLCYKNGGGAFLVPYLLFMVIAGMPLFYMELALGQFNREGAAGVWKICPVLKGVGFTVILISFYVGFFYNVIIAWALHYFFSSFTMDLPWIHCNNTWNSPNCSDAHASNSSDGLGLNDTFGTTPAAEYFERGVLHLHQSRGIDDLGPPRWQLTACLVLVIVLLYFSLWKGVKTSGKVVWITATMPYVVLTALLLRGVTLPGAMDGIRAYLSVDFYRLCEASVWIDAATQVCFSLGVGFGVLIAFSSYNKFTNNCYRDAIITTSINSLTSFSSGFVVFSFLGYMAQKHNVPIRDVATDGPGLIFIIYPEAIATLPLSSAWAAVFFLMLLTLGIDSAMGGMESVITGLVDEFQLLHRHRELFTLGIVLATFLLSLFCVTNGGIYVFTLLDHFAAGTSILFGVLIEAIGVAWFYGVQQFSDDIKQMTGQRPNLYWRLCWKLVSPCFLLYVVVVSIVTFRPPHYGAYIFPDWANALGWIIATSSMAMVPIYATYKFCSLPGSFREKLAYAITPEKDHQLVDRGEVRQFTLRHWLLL
T3 sequence (Q05941 23-502): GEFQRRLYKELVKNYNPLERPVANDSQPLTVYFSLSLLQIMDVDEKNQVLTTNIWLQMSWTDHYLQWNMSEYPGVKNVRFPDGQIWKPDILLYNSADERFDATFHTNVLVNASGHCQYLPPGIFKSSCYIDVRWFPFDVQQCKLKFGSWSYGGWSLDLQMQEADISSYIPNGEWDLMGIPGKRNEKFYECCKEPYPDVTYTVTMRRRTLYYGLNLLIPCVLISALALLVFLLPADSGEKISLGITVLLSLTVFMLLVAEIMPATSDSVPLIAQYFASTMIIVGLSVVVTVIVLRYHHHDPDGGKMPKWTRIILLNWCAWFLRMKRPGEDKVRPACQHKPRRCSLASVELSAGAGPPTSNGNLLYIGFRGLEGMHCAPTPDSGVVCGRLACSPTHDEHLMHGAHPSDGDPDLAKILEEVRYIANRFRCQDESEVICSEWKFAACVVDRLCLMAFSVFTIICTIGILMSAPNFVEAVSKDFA
T1 sequence (P09483 31-630): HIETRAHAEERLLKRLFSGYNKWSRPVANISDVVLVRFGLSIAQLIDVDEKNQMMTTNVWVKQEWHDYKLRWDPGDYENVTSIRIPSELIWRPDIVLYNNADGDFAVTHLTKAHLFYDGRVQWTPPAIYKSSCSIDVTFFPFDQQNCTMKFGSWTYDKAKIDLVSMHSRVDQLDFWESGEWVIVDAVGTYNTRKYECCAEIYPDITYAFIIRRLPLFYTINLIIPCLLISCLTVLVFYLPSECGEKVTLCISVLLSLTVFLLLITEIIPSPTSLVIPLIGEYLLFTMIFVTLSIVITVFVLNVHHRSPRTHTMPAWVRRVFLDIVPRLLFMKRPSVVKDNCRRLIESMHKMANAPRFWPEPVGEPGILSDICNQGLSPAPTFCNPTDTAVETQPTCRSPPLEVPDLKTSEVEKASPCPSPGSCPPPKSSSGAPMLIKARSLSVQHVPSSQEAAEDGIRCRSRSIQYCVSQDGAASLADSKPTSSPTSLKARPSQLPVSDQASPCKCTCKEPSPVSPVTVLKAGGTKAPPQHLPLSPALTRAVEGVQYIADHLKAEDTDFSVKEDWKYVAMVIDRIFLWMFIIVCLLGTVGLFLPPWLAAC
T1 sequence (P12390 25-500): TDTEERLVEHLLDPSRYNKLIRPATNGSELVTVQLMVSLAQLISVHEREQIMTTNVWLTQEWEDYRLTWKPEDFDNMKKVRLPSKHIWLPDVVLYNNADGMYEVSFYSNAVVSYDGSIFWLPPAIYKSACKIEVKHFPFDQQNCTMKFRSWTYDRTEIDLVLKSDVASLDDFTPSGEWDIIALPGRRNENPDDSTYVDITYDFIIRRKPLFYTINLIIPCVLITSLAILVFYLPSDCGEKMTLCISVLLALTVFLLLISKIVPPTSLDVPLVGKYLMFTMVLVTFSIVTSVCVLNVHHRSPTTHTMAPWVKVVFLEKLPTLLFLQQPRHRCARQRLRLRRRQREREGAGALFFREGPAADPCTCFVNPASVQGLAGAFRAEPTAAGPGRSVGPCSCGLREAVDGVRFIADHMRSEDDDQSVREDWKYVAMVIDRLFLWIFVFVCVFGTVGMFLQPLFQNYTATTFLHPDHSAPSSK

As for `CN1CCCC2C(c3ccccc3)C(C3=NCCCC3)C(c3ccccc3)CC21` (centres unmarked) [lobinaline], the “food or water intake” value in data set [1] was “no reduction in food or water intake”. In data set [1], the overt toxicity result is given as “neither compound produced overt toxicity”. Moreover, the “inhibition of alcohol consumption” value in data set [1] (males and females) is ~40%. Moreover, the values for the pKi at alpha4/beta2 nicAChR, on nicAChRs [2] and on alpha7-nicAChR were 5.96, 4.80 and 4.82, respectively. In addition, in the data set on nicAChRs [2], the “character of [3H]epibatidine displacement” value was “monophasically displaced”. In addition, the “release of endogenous DA” value at DAT [3] (any brain region, n=8-36) is “Neither lobinaline nor its N-oxides ever caused release of endogenous DA”. The “effect on DA clearance parameters” value on DAT [3] (relative to % control) was “small, but significant, reduction in all DA clearance parameters”. Also, the “effect on amplitude of the DA signal” value on DAT [3] (single local application ~500 nl 250 μM, striatum, FIGS. 10, 11) is given as “transient, a non-significant decrease in amplitude”. The “K octanol/water (Ko/w)” value in data set [4] is given as 4.8. In the data set on nicAChRs [5], the “fractional [3H]DA release induced by 10 uM nicotine after test substance” value is reported as “completely prevented”. Moreover, the “concentration causing significant release of [3H]DA” value in data set [6] stood at 500 µM. On DAT [7] (1-minute post-application), the “effect on DA clearance rate” value is on record as “significantly decreased”. Further, on DAT [7] (local application 1 mM, 250 nl), the “effect on DA peak” value was “non-significantly decreased”. At DAT [7] (local ejection in striatum), the “time after ejection at which effects are no longer seen / DA clearance returns to normal” value is 3 to 5 min. Besides, the “reduction in DA clearance” value on DAT [7] (striatum, 1 minute after local application (lobinaline ~250 nl 1 mM; 403, 419 ~300 nl 250 μM), FIGS. 7-9) amounted to 50%. In addition, the “mode of action at nicAChRs” value in the data set on nicAChR is recorded as “weak partial agonist”. For the same compound, the aqueous solubility result in the data set “aqueous solubility” is given as “very low aqueous solubility”. Besides, the pIC50 at DAT [8] was 6.44.
